Experimental data taken from patent publication US12440493B2, “Combination therapy for treating cancer comprising substituted piperazines” (Eli Lilly and Company, priority 2020, dated 2025).
“And” between values parts separate entries of the source, which are not always exact repeats. Identical values can stand only once.

Tests used:
[1] = tested on: IDH1(R132H) primary human AML cells; test: AML cell differentiation in blood (flow cytometry, % hCD33+hCD11b+ of hCD45+ cells), human AML PDx models in NSG mice; type: in vivo; details: for AML cell differentiation (% hCD33 + hCD11b+ (of hCD45+ cells)): 2 mg/kg Cytarabine, IP, (QDx5, rest2)X2) 14 days off)x2, each value one animal, 2 mg/kg
Experimental: (§1) Compounds and Formulation. For in vivo studies, each test article is prepared at an appropriate concentration with vehicle. […] Compound A is prepared fresh at the appropriate concentrations with vehicle every 7 days and stored at 4° C. between doses. […] Cytarabine is prepared fresh weekly by dilution with sterile saline from stock solution of Cytarabine (injection 20 mg/mL, (Pfizer injectables')). Azacitidine (Sigma, Lot #MKBR7212) is formulated in sterile water and is prepared fresh daily immediately before dosing. In vivo human AML PDx models. […] Two models are used in the studies: […] As needed, splenocytes from tumor-bearing mice are used to propagate and expand the models, as described. Each test article is prepared as described above at an appropriate concentration with vehicle to give animals the doses tested in this study at a dosing volume of 10 μL/gram body weight. Mice receiving Compound A (PO, QD) are treated at the indicated doses for the duration of the study. The combination agents are dosed as follows: […] Treated mice are assessed in comparison to vehicle treated and naïve (non-tumor bearing) control mice. Body weight is recorded twice per week. […] AML PDx model propagation. […] Spleens are processed and splenocytes isolated as described below. Two hundred μL per subject of the splenocyte prep is injected IV (intravenous, tail vein) into recipient NSG mice. […] Once engraftment is confirmed, the mice are monitored biweekly until ready to be put on study. […] Submandibular blood is collected. Spleen/Splenocyte Processing and Prep. After excision, a spleen is weighed, and […] is placed in a standard sterile 15 mL polypropylene conical tube containing PBS, and placed on ice. […] The spleen is placed in ice cold sterile PBS in a 15 mL collection tube. The spleen is removed from the collection tube and placed in a 100 micron 50 mL conical tube cell strainer (BD Falcon #352360). The spleen is processed by gentle rubbing of the spleen tissue against the surface of the cell strainer with the end of a 5 mL syringe plunger in a circular motion. The surface of the strainer is rinsed with 10 mL room temperature sterile DPBS (HyClone SH30028) 3 times during the process. […] The cell pellet is collected by centrifugation (300×g) and washed three times with 30 mL sterile DPBS. The cells are counted and resuspended in DPBS at the desired implant concentration. Bone Marrow Collection. […] Flow cytometry analysis of human white cells. Submandibular blood samples from in vivo studies are collected. Fluor-conjugated antibody stains are added according to the manufacturer's instructions (anti-human CD33-PE (clone WM53, BD Cat #555450), anti-human CD14-APC (clone MφpP9, BD Cat #340436), anti-human CD15-V450 (clone HI98, BD Cat #561584), anti-human CD117-BV421 (clone YB5.B8, BD Cat #562434), anti-human […]7 (clone ICRF44, BD Cat #557754), anti-human […]7 (clone HI30, BD Cat #557748), and anti-human CD3-FITC (clone SK7, BD Cat #340542)). The samples are incubated for 30 minutes at room temperature, protected from light. After the incubation, 1.5 mL 1×BD Lyse/Fix (37° C., (BD #558049)) is added to each sample and incubated for 12 minutes at room temperature. The tubes are centrifuged at 300×g for 7 minutes. BD Lyse/Fix solution is aspirated and the cell pellet washed with stain/wash buffer 3 times (1 wash step consisted of: pellet resuspended in 3 mL stain/wash buffer, centrifuged at 300×g, aspirated wash). Fixed cells are then resuspended in 300 to 400 μL stain/wash buffer. Samples are analyzed on a Becton Dickinson FACSVerse Flow cytometer (Cat #651155 Serial #Z6511550447) using standard flow cytometry principles and techniques. Samples are analyzed on the same day as they are stained and fixed. Population gating and data analysis of percent population are performed in the FACSuite software on the FACSVerse cytometer. Percent population values from the data analysis are plotted in Graphpad Prism or in JMP13. […]

[2] = tested on: IDH1(R132H) primary human AML cells; test: AML clearance in peripheral blood (flow cytometry, % hCD33+hCD45+ of total white cells), human AML PDx models in NSG mice; type: in vivo; details: for AML clearance (% hCD33 + hCD45+ (of total white cells)): 2 mg/kg Cytarabine, IP, (QDx5, rest2)X2) 14 days off)x2, each value one animal, 2 mg/kg
Experimental: as §1

2-HG production = test: Plasma 2-HG inhibition (LC-MS metabolite analysis in plasma of AML PDx model); type: in vivo, human
[3] = tested on: IDH1(R132H) primary human AML cells; test: Bone marrow AML clearance (flow cytometry), human AML PDx models in NSG mice; type: in vivo
Experimental: as §1

[4] = 2 mg/kg Cytarabine, IP, (QDx5, rest2)X2) 14 days off)x2, each line one animal
[5] = 2 mg/kg Cytarabine, IP, (QDx5, rest2)X2) 14 days off) × 2, each line one animal

Q: Nc1ccn([C@@H]2O[C@H](CO)[C@@H](O)[C@@H]2O)c(=O)n1 [Cytarabine, reference compound] was tested. Which “AML cell differentiation (% hCD33 + hCD11b+ (of hCD45+ cells))” value ([1]; Treatment day 18) did it give?
A: 15.93% and 18.69% and 13.00% and 11.66% and 14.07% and 10.70% and 11.81%

Q: And the “AML cell differentiation (% hCD33 + hCD11b+ (of hCD45+ cells))” value ([1]; Treatment day 34)?
A: 37.13% and 33.07% and 31.02% and 31.17% and 33.03% and 37.1%

Q: What about the “AML cell differentiation (% hCD33 + hCD11b+ (of hCD45+ cells))” value ([1]; Treatment day 47) of the same compound?
A: 8.3% and 7.84% and 7.69% and 5.82% and 16.79% and 5.09% and 7.21%

Q: And the “AML cell differentiation (% hCD33 + hCD11b+ (of hCD45+ cells))” value ([1]; Treatment day 61)?
A: 9.5% and 8.65% and 9.29% and 6.94% and 10.6% and 7.78% and 8.46%

Q: What about the “AML cell differentiation (% hCD33 + hCD11b+ (of hCD45+ cells))” value ([1]; Treatment day 75) of the same compound?
A: 5.65% and 7.65% and 11.09% and 11.48% and 10% and 10.46%

Q: What about the “AML cell differentiation (% hCD33 + hCD11b+ (of hCD45+ cells))” value ([1]; Treatment day 89) of the same compound?
A: 8.75% and 10.17% and 8.87% and 18.02% and 12.49% and 11.08%

Q: And the “AML cell differentiation (% hCD33 + hCD11b+ (of hCD45+ cells))” value ([1]; Treatment day −3)?
A: 16.46% and 20.43% and 14.95% and 8.62% and 13.39% and 10.09% and 12.17%

Q: And the “% AML cell differentiation (treatment group value)” value ([1]; day 47, group C: cytarabine (2 mg/kg), vehicle 10%)?
A: 8%

Q: What about the “AML clearance (% hCD33 + hCD45+ (of total white cells))” value ([2]; Treatment day 18) of the same compound?
A: 8.04% and 3.22% and 3.24% and 8.64% and 3.23% and 3.50% and 4.40%

Q: What about the “AML clearance (% hCD33 + hCD45+ (of total white cells))” value ([2]; Treatment day 34) of the same compound?
A: 9.07% and 2.02% and 3.5% and 2.54% and 1.79% and 2.04%

Q: And the “AML clearance (% hCD33 + hCD45+ (of total white cells))” value ([2]; Treatment day 47)?
A: 8.25% and 8.31% and 5.29% and 4.92% and 2.29% and 4.71% and 5.51%

Q: And the “AML clearance (% hCD33 + hCD45+ (of total white cells))” value ([2]; Treatment day 61)?
A: 17.63% and 29.86% and 14.99% and 42.59% and 15.49% and 29.04% and 29.58%

Q: And the “AML clearance (% hCD33 + hCD45+ (of total white cells))” value ([2]; Treatment day 75)?
A: 56.57% and 60.59% and 22.85% and 59.75% and 36.77% and 44.17%

Q: What about the “AML clearance (% hCD33 + hCD45+ (of total white cells))” value ([2]; Treatment day 89) of the same compound?
A: 76.67% and 78.11% and 57.04% and 81.53% and 79.57% and 68.92%

Q: What about the “AML clearance (% hCD33 + hCD45+ (of total white cells))” value ([2]; Treatment day −3) of the same compound?
A: 21.32% and 14.8% and 13.68% and 21.94% and 21.7% and 20% and 17.15%

Q: And the “% peripheral blood AML cells (treatment group value)” value ([2]; day 47, group C: cytarabine (2 mg/kg), vehicle 86%)?
A: 5.2%

Q: And the “% Inhibition of 2-HG (plasma)” value (2-HG production; [4])?
A: 78.844% and 68.361% and 88.982% and 79.768% and 71.68% and 76.685% and 68.331%

Q: And the “Naive Subtracted 2-HG (plasma)” value (2-HG production; [4])?
A: 2.348 µM and 3.512 µM and 1.223 µM and 2.246 µM and 3.143 µM and 2.588 µM and 3.515 µM

Q: What about the “Plasma 2-HG” value (2-HG production; [4]) of the same compound?
A: 3.256 µM and 4.42 µM and 2.131 µM and 3.154 µM and 4.051 µM and 3.496 µM and 4.423 µM

Q: What about the “% plasma 2-HG (treatment group value)” value (2-HG production; group C: cytarabine (2 mg/kg), vehicle 100%) of the same compound?
A: 24%

Q: And the “Bone Marrow AML Clearance: % hCD33 + hCD45+ (% of white cells)” value [3, 5]?
A: 64.38% and 75.48% and 39.66% and 80.32%

Q: And the “Bone Marrow AML Clearance: % hCD45+ (% of white cells)” value [3, 5]?
A: 71.88% and 78.06% and 44.54% and 80.75%

Q: And the “% human AML cells in bone marrow (of white cells; lower = more clearance)” value ([3]; group C: cytarabine (2 mg/kg), vehicle 94%)?
A: 63%
